Data from ChEMBL document CHEMBL1201862, “PubChem BioAssay data set” (2004).
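Where inhibition never reached the appropriate level, the endpoint shown equals the highest concentration tested. Otherwise, values were interpolated linearly from a five-concentration, 48-hour dose response in 96-well plates. At the GI50, growth is halved.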 Calls of active or inactive are those of the source. Cut-off read from the data, not from the text of the source: active = GI50 up to about 1.1 µM and inactive = higher.

Key:
Experiment in all cases: inhibition of tumour cell growth, NCI panel, 48 h
[1] = test system: NCI/ADR-RES
[2] = test system: ACHN
[3] = test system: SK-OV-3
[4] = test system: Malme-3M
[5] = test system: MDA-N
[6] = test system: MDA-MB-435
[7] = test system: SK-MEL-28
[8] = test system: HCT-15
[9] = test system: LOX IMVI
[10] = test system: 786-0
[11] = test system: BT-549
[12] = test system: OVCAR-4
[13] = test system: SF-295
[14] = test system: UACC-62
[15] = test system: SK-MEL-2
[16] = test system: U-251
[17] = test system: T47D
[18] = test system: SK-MEL-5
[19] = test system: HCT-116
[20] = test system: CAKI-1
[21] = test system: TK-10
[22] = test system: DU-145
[23] = test system: HOP-62
[24] = test system: SF-268
[25] = test system: A498
[26] = test system: RPMI-8226
[27] = test system: HOP-92
[28] = test system: HL-60
[29] = test system: SN12C
[30] = test system: UACC-257
[31] = test system: MCF7
[32] = test system: SNB-75
[33] = test system: MDA-MB-231
[34] = test system: CCRF-CEM
[35] = test system: MOLT-4
[36] = test system: SF-539
[37] = test system: UO-31
[38] = test system: SR
[39] = test system: IGROV-1
[40] = test system: OVCAR-3
[41] = test system: EKVX
[42] = test system: SW-620
[43] = test system: K562
[44] = test system: NCI-H460
[45] = test system: HCC 2998
[46] = test system: RXF 393
[47] = test system: NCI-H226
[48] = test system: PC-3
[49] = test system: HT-29
[50] = test system: KM12
[51] = test system: A549
[52] = test system: OVCAR-8
[53] = test system: NCI-H522
[54] = test system: COLO 205
[55] = test system: NCI-H23
[56] = test system: OVCAR-5
[57] = test system: Hs-578T
[58] = test system: M14
[59] = test system: SNB-19

CCC[N+](C)(C)CCCNC(=O)c1c(O)c2ccccc2[nH]c1=O
GI50 [1]: > 100 µM (inactive) | GI50 [2]: > 100 µM (inactive) | GI50 [3]: > 100 µM (inactive) | GI50 [4]: 24.3 µM (inactive) | GI50 [5]: > 100 µM (inactive) | GI50 [6]: > 100 µM (inactive) | GI50 [7]: > 100 µM (inactive) | GI50 [8]: > 100 µM | GI50 [9]: > 100 µM (inactive) | GI50 [10]: > 100 µM (inactive) | GI50 [11]: 89.1 µM (inactive) | GI50 [12]: > 100 µM (inactive) | GI50 [13]: > 100 µM (inactive) | GI50 [14]: > 100 µM (inactive) | GI50 [15]: > 100 µM (inactive) | GI50 [16]: > 100 µM (inactive) | GI50 [17]: > 100 µM (inactive) | GI50 [18]: 15.9 µM (inactive) | GI50 [19]: > 100 µM (inactive) | GI50 [20]: > 100 µM (inactive) | GI50 [21]: > 100 µM (inactive) | GI50 [22]: > 100 µM (inactive) | GI50 [23]: > 100 µM (inactive) | GI50 [24]: > 100 µM (inactive) | GI50 [25]: > 100 µM (inactive) | GI50 [26]: > 100 µM (inactive) | GI50 [27]: > 100 µM (inactive) | GI50 [28]: > 100 µM (inactive) | GI50 [29]: > 100 µM (inactive) | GI50 [30]: > 100 µM (inactive) | GI50 [31]: > 100 µM (inactive) | GI50 [32]: > 100 µM (inactive) | GI50 [33]: > 100 µM (inactive) | GI50 [34]: > 100 µM (inactive) | GI50 [35]: > 100 µM (inactive) | GI50 [36]: > 100 µM (inactive) | GI50 [37]: 53.1 µM (inactive) | GI50 [38]: > 100 µM (inactive) | GI50 [39]: 89.1 µM (inactive) | GI50 [40]: > 100 µM (inactive) | GI50 [41]: > 100 µM (inactive) | GI50 [42]: > 100 µM (inactive) | GI50 [43]: > 100 µM (inactive) | GI50 [44]: > 100 µM (inactive) | GI50 [45]: > 100 µM (inactive) | GI50 [46]: > 100 µM (inactive) | GI50 [47]: 77.1 µM (inactive) | GI50 [48]: > 100 µM (inactive) | GI50 [49]: > 100 µM (inactive) | GI50 [50]: > 100 µM (inactive) | GI50 [51]: 46.3 µM (inactive) | GI50 [52]: > 100 µM (inactive) | GI50 [53]: > 100 µM (inactive) | GI50 [54]: > 100 µM (inactive) | GI50 [55]: > 100 µM (inactive) | GI50 [56]: > 100 µM (inactive) | GI50 [57]: > 100 µM (inactive)

Cc1ccc([N+](=O)[O-])cc1S(=O)(=O)Nc1ccc(C2=NOC(c3ccccc3)C2)cc1 (centres undefined)
GI50 [1]: 3.04 µM (inactive) | GI50 [2]: 13.5 µM (inactive) | GI50 [3]: 11.5 µM (inactive) | GI50 [4]: 8.63 µM (inactive) | GI50 [58]: 4.11 µM (inactive) | GI50 [5]: 1.99 µM (inactive) | GI50 [6]: 1.5 µM (inactive) | GI50 [7]: 18.7 µM (inactive) | GI50 [8]: 4.11 µM | GI50 [9]: 10.9 µM (inactive) | GI50 [10]: 13.8 µM (inactive) | GI50 [59]: 10.1 µM (inactive) | GI50 [11]: 12.4 µM (inactive) | GI50 [12]: 1.32 µM (inactive) | GI50 [13]: 3.17 µM (inactive) | GI50 [14]: 3.85 µM (inactive) | GI50 [15]: 3.65 µM (inactive) | GI50 [17]: 5.77 µM (inactive) | GI50 [18]: 6.47 µM (inactive) | GI50 [19]: 7.08 µM (inactive) | GI50 [20]: 7.1 µM (inactive) | GI50 [22]: 12 µM (inactive) | GI50 [23]: 5.3 µM (inactive) | GI50 [24]: 12.4 µM (inactive) | GI50 [25]: 4.03 µM (inactive) | GI50 [26]: 4.7 µM (inactive) | GI50 [27]: 15.7 µM (inactive) | GI50 [28]: 5.12 µM (inactive) | GI50 [29]: 12.9 µM (inactive) | GI50 [30]: 14.7 µM (inactive) | GI50 [31]: 3.25 µM (inactive) | GI50 [32]: 8.18 µM (inactive) | GI50 [33]: 8.99 µM (inactive) | GI50 [34]: 9.48 µM (inactive) | GI50 [35]: 2.61 µM (inactive) | GI50 [36]: 9.77 µM (inactive) | GI50 [37]: 18.2 µM (inactive) | GI50 [38]: 1.31 µM (inactive) | GI50 [39]: 5.48 µM (inactive) | GI50 [40]: 3.33 µM (inactive) | GI50 [41]: 17.7 µM (inactive) | GI50 [42]: 6 µM (inactive) | GI50 [43]: 1.96 µM (inactive) | GI50 [44]: 5.52 µM (inactive) | GI50 [45]: 9.04 µM (inactive) | GI50 [46]: 1.82 µM (inactive) | GI50 [47]: 24.9 µM (inactive) | GI50 [48]: 7.19 µM (inactive) | GI50 [49]: 6.78 µM (inactive) | GI50 [50]: 3.57 µM (inactive) | GI50 [51]: 6.89 µM (inactive) | GI50 [52]: 18.3 µM (inactive) | GI50 [53]: 3.27 µM (inactive) | GI50 [54]: 6.7 µM (inactive) | GI50 [55]: 14.5 µM (inactive) | GI50 [56]: 25.4 µM (inactive) | GI50 [57]: 19.8 µM (inactive)
